Values quoted from earlier work, collected in patent publication US20030045478A1, “Gamma-ketoacid dipeptide derivatives as inhibitors of caspase-3” (priority 2000, published 2003).

Key:
[1] = target: T1, caspase-3 (Homo sapiens, UniProt P42574)
T1 sequence (P42574 29-175 limits assumed): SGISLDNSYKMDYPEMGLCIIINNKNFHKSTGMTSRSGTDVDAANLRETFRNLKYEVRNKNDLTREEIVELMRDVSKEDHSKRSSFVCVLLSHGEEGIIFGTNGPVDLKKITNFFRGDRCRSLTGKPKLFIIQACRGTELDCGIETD
T1 sequence (P42574 176-277 limits assumed): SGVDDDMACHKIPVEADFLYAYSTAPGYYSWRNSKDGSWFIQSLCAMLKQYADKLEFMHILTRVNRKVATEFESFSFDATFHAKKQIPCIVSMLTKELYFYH

[2] = target: T2, caspase-1 (Homo sapiens, UniProt P29466)
T2 sequence (P29466 120-297 limits assumed): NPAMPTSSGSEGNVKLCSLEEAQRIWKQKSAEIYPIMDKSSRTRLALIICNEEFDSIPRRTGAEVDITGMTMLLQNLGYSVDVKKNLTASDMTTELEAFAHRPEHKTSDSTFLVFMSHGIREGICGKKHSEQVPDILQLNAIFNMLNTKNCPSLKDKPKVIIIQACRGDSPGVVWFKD
T2 sequence (P29466 317-404 limits assumed): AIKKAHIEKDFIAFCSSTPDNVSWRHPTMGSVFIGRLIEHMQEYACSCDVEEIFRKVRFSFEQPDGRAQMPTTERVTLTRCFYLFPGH

Substance: Ac-YVAD-CHO
- Ki [1]: 12 µM
- Ki [2]: < 0.001 µM
